Measured values published in the Deep4Chem optical property database.
Values joined by “and” are separate entries in the source; they are usually repeats but may differ in a detail not shown here. Equal entries are not always repeated.

Experiment: solvent given as SMILES

CCCCCCC(CCCCCC)N1C(=O)c2cccc3c(-c4ccccc4)ccc(c23)C1=O
absorption maximum (in CCCCCC): 342.2 nm | absorption maximum (in CCCCCCCCCCCCCC): 343.4 nm | absorption maximum (in CCCCCCCCCCCO): 353.4 nm | absorption maximum (in CCCCO): 355.2 nm | absorption maximum (in CN(C)C=O): 355.2 nm | absorption maximum (in Cc1ccccc1): 346.8 nm | absorption maximum (in ClC(Cl)Cl): 355.4 nm

c1ccc2[nH]c(-c3cc(-c4nc5ccccc5[nH]4)cc(-c4nc5ccccc5[nH]4)c3)nc2c1
absorption maximum (in CS(C)=O): 316 nm

CC(=O)O[B-]1(OC(C)=O)OC(/C=C/c2cccc3ccccc23)=CC(/C=C/c2cccc3ccccc23)=[O+]1
absorption maximum (in C1CCOC1): 464 nm | absorption maximum (in CC#N): 468 nm | absorption maximum (in CC(C)=O): 464 nm | absorption maximum (in CS(C)=O): 478 nm | absorption maximum (in Cc1ccccc1): 468 nm | absorption maximum (in ClC(Cl)Cl): 474 nm | absorption maximum (in ClCCl): 472 nm

CC(C)[Si](C#Cc1c2cc3ccccc3cc2c(C#C[Si](C)(C)C)c2cc3ccccc3cc12)(C(C)C)C(C)C
absorption maximum (in ClCCl): 642 nm

COc1ccc2ccccc2c1C1=CC(c2ccccc2)=C(c2ccccc2)C1
absorption maximum (in ClCCl): 340 nm

COCCOCCOCCOc1cc(C=O)c(OCCOCCOCCOC)cc1C=O
absorption maximum (in CC(C)(C)O): 393 nm | absorption maximum (in CC(C)CO): 390 nm | absorption maximum (in CC(C)O): 391 nm | absorption maximum (in CCCCO): 378 nm | absorption maximum (in CCCO): 367 nm | absorption maximum (in CCO): 364 nm | absorption maximum (in CN(C)C=O): 393 nm | absorption maximum (in CNC=O): 350 nm | absorption maximum (in CO): 354 nm | absorption maximum (in NC=O): 354 nm | absorption maximum (in O): 394 nm

c1ccc(-c2nc(-c3ccccc3)nc(-c3ccc(-n4c5ccccc5c5cc(-n6c7ccccc7c7ccccc76)ccc54)c4c5ccccc5n(-c5ccccc5)c34)n2)cc1
absorption maximum (in Cc1ccccc1): 378.07 nm

F[B-]1(F)n2c(ccc2-c2ccccc2)C(C(F)(F)F)=C2C=CC(c3ccccc3)=[N+]21
absorption maximum (in CCCCCC): 592 nm

CC(C)(C)c1ccc(-c2sc3c(-c4ccc(C(C)(C)C)cc4)c4n(c3c2-c2ccc(C(C)(C)C)cc2)[B-](F)(F)[N+]2=Cc3c(-c5ccc(C(C)(C)C)cc5)c5sc(-c6ccc(C(C)(C)C)cc6)c(-c6ccc(C(C)(C)C)cc6)c5n3[B-](F)(F)[N+]2=C4)cc1
absorption maximum (in CC#N): 574 nm | absorption maximum (in CCCCCC): 591 nm | absorption maximum (in CN(C)C=O): 584 nm | absorption maximum (in Cc1ccccc1): 596 nm | absorption maximum (in ClCCl): 591 nm

C/C(=N\Nc1ccc(C#N)cc1)c1ccccn1
absorption maximum (in CC#N): 342 nm | absorption maximum (in CCCCCC): 347 nm | absorption maximum (in CO): 364 nm | absorption maximum (in CS(C)=O): 351 nm | absorption maximum (in ClC(Cl)Cl): 343 nm

N#Cc1c(-n2nnc3cc(Cl)ccc32)n([C@H]2C[C@H](O)[C@@H](CO)O2)c2ncnc(N)c12
absorption maximum (in CO): 276 nm

COc1ccc(-c2cnc3cccc(-c4ccc(C(C)=O)cc4)n23)cc1
absorption maximum (in ClCCl): 366 nm

CNc1ccc2c(c1)C(=O)c1ccccc1-2
absorption maximum (in C1CCCCC1): 474 nm | absorption maximum (in CC#N): 508 nm | absorption maximum (in CCO): 511 nm | absorption maximum (in c1ccccc1): 491 nm

O=C1c2ccccc2-c2nc3c(F)c(F)c(F)c(F)c3n21
absorption maximum (in ClCCl): 337 nm

Cc1ccc([C@@H]2C[C@](O)(c3ccccn3)C[C@](O)(c3ccccn3)[C@H]2C(=O)c2ccc(N(c3ccccc3)c3ccccc3)cc2)cc1
absorption maximum (in C1CCOC1): 366 nm | absorption maximum (in CC#N): 364 nm | absorption maximum (in CCO): 366 nm | absorption maximum (in CCOC(C)=O): 366 nm | absorption maximum (in CN(C)C=O): 360 nm | absorption maximum (in ClCCl): 372 nm | absorption maximum (in c1ccccc1): 370 nm

CC1=[N+]2C(=C(c3c4ccccc4cc4ccccc34)c3ccc(C)n3[B-]2(F)F)C=C1
absorption maximum (in C1CCOC1): 517 nm | absorption maximum (in CC#N): 514 nm | absorption maximum (in CCCCCC): 515 nm and 516 nm | absorption maximum (in CCO): 515 nm | absorption maximum (in CN(C)C=O): 517 nm | absorption maximum (in CO): 517 nm | absorption maximum (in CS(C)=O): 519 nm | absorption maximum (in Cc1ccccc1): 519 nm | absorption maximum (in ClC(Cl)Cl): 518 nm | absorption maximum (in ClCCl): 518 nm

c1ccc2c(c1)-c1ccccc1C21c2cc(-c3ccc(-n4c5ccccc5c5ccccc54)cc3)ccc2Sc2ccc(-c3ccc(-n4c5ccccc5c5ccccc54)cc3)cc21
absorption maximum (in ClCCl): 341 nm

CCCCN1C(=O)C2=C(c3ccc(Br)cc3)[N-]C(=O)C2=C1c1ccc(Br)cc1
absorption maximum (in ClCCl): 571 nm

CCOC(=O)c1ccc(C2=Cc3cc4ccccc4cc3P2(=O)c2ccccc2)cc1 (configuration not stated)
absorption maximum (in ClCCl): 390 nm

O=c1oc2ccccc2c2c1c(=O)oc1cc(O)ccc12
absorption maximum (in CS(C)=O): 376 nm | absorption maximum (in ClCCl): 374 nm

O=Cc1c(O)c(-c2nc3ccccc3s2)cc2ccccc12
absorption maximum (in C1CCOC1): 352 nm | absorption maximum (in CC#N): 349 nm | absorption maximum (in CC(C)=O): 352 nm | absorption maximum (in CCO): 349 nm | absorption maximum (in CCOC(C)=O): 352 nm | absorption maximum (in CN(C)C=O): 346 nm | absorption maximum (in CO): 349 nm | absorption maximum (in Cc1ccccc1): 358 nm | absorption maximum (in ClC(Cl)Cl): 352 nm | absorption maximum (in ClCCl): 352 nm

CN(C)c1nc(N)c2nc(C#N)n(Cc3ccccc3)c2n1
absorption maximum (in C1COCCO1): 339 nm | absorption maximum (in CC#N): 338 nm | absorption maximum (in CO): 338 nm | absorption maximum (in ClCCl): 336 nm

Cc1ccc(C2=C3C=CC([Te]c4ccccc4)=[N+]3[B-](F)(F)n3c([Te]c4ccccc4)ccc32)cc1
absorption maximum (in C1CCOC1): 620 nm

C1=Cc2ccccc2Cc2ccccc21
absorption maximum (in CC#N): 285 nm | absorption maximum (in CO): 285 nm

CC(C)(C)c1ccc(C#Cc2cc3ccc4cc(C#Cc5ccc(C(C)(C)C)cc5)cc5ccc(c2)c3c45)cc1
absorption maximum (in ClCCl): 410 nm

C1=CN2C[n+]3cccc(OCc4ccccc4)c3N=C2C(OCc2ccccc2)=C1
absorption maximum (in CO): 450 nm

CC1(C)C(=O)C=Cc2ccc(N3CCC3)cc21
absorption maximum (in O): 387 nm

CCC1=C(C)C2=Cc3c4ccccc4c4n3[B-](c3cc[n+](C)cc3)(Oc3ccccc3-4)[N+]2=C1C (configuration not stated)
absorption maximum (in CO): 621 nm | absorption maximum (in CS(C)=O): 626 nm

CCCCn1c2ccc(C#N)cc2c2cc(C#N)ccc21
absorption maximum (in ClCCl): 349 nm

CC(C)[Si](C#Cc1c2ccc(C(C)(C)C)cc2c(C#Cc2c3ccc(C(C)(C)C)cc3c(C#Cc3c4ccc(C(C)(C)C)cc4c(C#C[Si](C(C)C)(C(C)C)C(C)C)c4ccc(C(C)(C)C)cc34)c3ccc(C(C)(C)C)cc23)c2ccc(C(C)(C)C)cc12)(C(C)C)C(C)C
absorption maximum (in Cc1ccccc1): 570 nm

O=C(c1ccc(-n2c3ccccc3c3ccccc32)cc1)c1ccc(-n2c3ccccc3c3ccccc32)cc1
absorption maximum (in Cc1ccccc1): 340 nm

O=C1/C(=C2\Sc3ccc(S(=O)(=O)Nc4ccccc4)cc3C2=O)Sc2ccc(S(=O)(=O)Nc3ccccc3)cc21
absorption maximum (in C1COCCO1): 534 nm | absorption maximum (in CN(C)C=O): 542 nm | absorption maximum (in CO): 536 nm | absorption maximum (in CS(C)=O): 546 nm

COC(=O)C1=NNC(C(=O)OC)=C2c3ccccc3C(=O)c3ccccc3C12 (configuration not stated)
absorption maximum (in CC#N): 391 nm

FC(F)(F)c1ccc(/C=C/c2nc(/C=C/c3ccc(N(c4ccccc4)c4ccccc4)cc3)cc(/C=C/c3ccc(N(c4ccccc4)c4ccccc4)cc3)n2)cc1
absorption maximum (in ClCCl): 430 nm

N#Cc1cc2ccccc2[nH]1
absorption maximum (in C1COCCO1): 281.6 nm | absorption maximum (in CC#N): 279.69 nm

CCCCCCOc1cc(/C=C/c2cc(OCCCCCC)c(/C=C/c3cc(OCCCCCC)c(C=C4C(=O)c5ccccc5C4=O)cc3OCCCCCC)cc2OCCCCCC)c(OCCCCCC)cc1C=C1C(=O)c2ccccc2C1=O
absorption maximum (in ClCCl): 550 nm

CCCCCCN(CCCCCC)c1ccc(C#Cc2ccc(/C=C/c3ccc(-c4ccc(/C=C/c5ccc(C#Cc6ccc(N(CCCCCC)CCCCCC)cc6)cc5)cc4)cc3)cc2)cc1
absorption maximum (in Cc1ccccc1): 400 nm

CCN(CC)c1ccc(/C=N/Nc2ccc(C#N)cc2)c(O)c1
absorption maximum (in CC#N): 382 nm | absorption maximum (in CCCCCC): 384 nm | absorption maximum (in CO): 368 nm | absorption maximum (in CS(C)=O): 391 nm | absorption maximum (in ClC(Cl)Cl): 373 nm

CCCCCCCCn1c(=O)c2cc3c(C#Cc4ccc(N(c5ccccc5)c5ccccc5)cc4)c4cc5c(=O)n(CCCCCCCC)c(=O)c5cc4c(C#Cc4ccc(N(c5ccccc5)c5ccccc5)cc4)c3cc2c1=O
absorption maximum (in ClC(Cl)Cl): 582 nm

COC(=O)c1ccc(C#Cc2ccc(N(C)C)cc2)cc1
absorption maximum (in C1CCCCC1): 359.51 nm | absorption maximum (in C1CCOC1): 361.89 nm | absorption maximum (in C1COCCO1): 360.5 nm | absorption maximum (in CC1CCCO1): 354.5 nm | absorption maximum (in CC#N): 360.5 nm | absorption maximum (in CC(C)=O): 362 nm | absorption maximum (in CC(C)CC(C)(C)C): 364.5 nm | absorption maximum (in CC(C)O): 360.5 nm | absorption maximum (in CCCCCCCCCCCCCCCC): 365.5 nm | absorption maximum (in CCCCCCCCCCCCCCCCCl): 370.49 nm | absorption maximum (in CCOC(C)=O): 357 nm | absorption maximum (in CCOCC): 354.5 nm | absorption maximum (in CN(C)C=O): 367.5 nm | absorption maximum (in CO): 359 nm | absorption maximum (in CS(C)=O): 370 nm | absorption maximum (in Cc1ccccc1): 369.49 nm

Cc1cc(C)c(C2=C3C=C(/C=C/C(=O)OC(C)(C)C)C=[N+]3[B-](F)(F)n3c2ccc3N2CCOCC2)c(C)c1
absorption maximum (in CC#N): 480 nm | absorption maximum (in CCCCCC): 532 nm | absorption maximum (in CN(C)C=O): 485 nm | absorption maximum (in CO): 483 nm | absorption maximum (in Cc1ccccc1): 525 nm | absorption maximum (in ClCCl): 497 nm

c1ccc(-c2nc(-c3ccc(-c4cncc5ccccc45)cc3)[nH]c2-c2ccccc2)cc1
absorption maximum (in C1CCOC1): 333 nm

CN(C)c1ccc(C#Cc2cc(C#Cc3ccc(C(F)(F)F)cc3)c3ccc4c(C#Cc5ccc(C(F)(F)F)cc5)cc(C#Cc5ccc(N(C)C)cc5)c5ccc2c3c54)cc1
absorption maximum (in ClCCl): 506 nm

O=c1c2ccccc2n2c3ccc(-c4ccccc4)cc3c(=O)c3cccc1c32
absorption maximum (in CC#N): 442 nm | absorption maximum (in CCCCCC): 434 nm | absorption maximum (in CCCCOCCCC): 437 nm | absorption maximum (in CCOC(C)=O): 439 nm | absorption maximum (in CN(C)C=O): 445 nm

CCn1ncc2c3c(C#N)c4c5ccccc5n(CC)c4nc3ccc21
absorption maximum (in CCOC(C)=O): 383 nm

COC(=O)C1=C(C(=O)OC)C2(c3ccccc3-c3c(Br)cc(Br)cc32)C2(/C=C/c3ccccc3)c3cc(OC)c(OC)cc3CCN12 (configuration not stated)
absorption maximum (in ClCCl): 328 nm

Clc1cc(Cl)c(B2c3ccccc3Nc3ccccc32)c(Cl)c1
absorption maximum (in ClCCl): 396 nm
